{
  "source": "ChEMBL document CHEMBL5625277",
  "about": "“Systematical mutational analysis of teriparatide on anti-osteoporosis activity by alanine scanning” (Bioorg Med Chem Lett, 2024)",
  "data": [
    {"assay": "Cytotoxicity in pre-osteoblasts (unknown origin) assessed as cell death upto 5 uM by CCK8 assay", "format": "toxicity, cell-based", "details": "pre-osteoblast", "values": [
      {"smiles": "CC[C@H](C)[C@H](NC(=O)[C@H](CCC(=O)O)NC(=O)[C@H](CO)NC(=O)[C@@H](NC(=O)[C@H](CO)NC(C)=O)C(C)C)C(=O)N[C@@H](CCC(N)=O)C(=O)N[C@@H](CC(C)C)C(=O)N[C@@H](CCSC)C(=O)N[C@@H](Cc1cnc[nH]1)C(=O)N[C@@H](CC(N)=O)C(=O)N[C@@H](CC(C)C)C(=O)NCC(=O)N[C@@H](CCCCN)C(=O)N[C@@H](Cc1cnc[nH]1)C(=O)N[C@@H](CC(C)C)C(=O)N[C@@H](CC(N)=O)C(=O)N[C@@H](CO)C(=O)N[C@@H](CCSC)C(=O)N[C@@H](CCC(=O)O)C(=O)N[C@@H](CCCNC(=N)N)C(=O)N[C@H](C(=O)N[C@@H](CCC(=O)O)C(=O)N[C@@H](Cc1c[nH]c2ccccc12)C(=O)N[C@@H](CC(C)C)C(=O)N[C@@H](CCCNC(=N)N)C(=O)N[C@@H](CCCCN)C(=O)N[C@@H](CCCCN)C(=O)N[C@@H](CC(C)C)C(=O)N[C@@H](CCC(N)=O)C(=O)N[C@@H](CC(=O)O)C(=O)N[C@H](C(=O)N[C@@H](Cc1cnc[nH]1)C(=O)N[C@@H](CC(N)=O)C(=O)N[C@@H](Cc1ccccc1)C(N)=O)C(C)C)C(C)C", "Activity": "Non-Toxic"},
      {"smiles": "CC[C@H](C)[C@H](NC(=O)[C@H](CCC(=O)O)NC(=O)[C@H](CO)NC(=O)[C@@H](NC(=O)[C@H](CO)NC(C)=O)C(C)C)C(=O)N[C@@H](CCC(N)=O)C(=O)N[C@@H](CC(C)C)C(=O)N[C@@H](CCSC)C(=O)N[C@@H](Cc1cnc[nH]1)C(=O)N[C@@H](CC(N)=O)C(=O)N[C@@H](CC(C)C)C(=O)NCC(=O)N[C@@H](CCCCN)C(=O)N[C@@H](Cc1cnc[nH]1)C(=O)N[C@@H](CC(C)C)C(=O)N[C@@H](CC(N)=O)C(=O)N[C@@H](CO)C(=O)N[C@@H](CCSC)C(=O)N[C@@H](CCC(=O)O)C(=O)N[C@@H](CCCNC(=N)N)C(=O)N[C@H](C(=O)N[C@@H](CCC(=O)O)C(=O)N[C@@H](C)C(=O)N[C@@H](CC(C)C)C(=O)N[C@@H](CCCNC(=N)N)C(=O)N[C@@H](CCCCN)C(=O)N[C@@H](CCCCN)C(=O)N[C@@H](CC(C)C)C(=O)N[C@@H](CCC(N)=O)C(=O)N[C@@H](CC(=O)O)C(=O)N[C@H](C(=O)N[C@@H](Cc1cnc[nH]1)C(=O)N[C@@H](CC(N)=O)C(=O)N[C@@H](Cc1ccccc1)C(N)=O)C(C)C)C(C)C", "Activity": "Non-Toxic"},
      {"smiles": "CC[C@H](C)[C@H](NC(=O)[C@H](CCC(=O)O)NC(=O)[C@H](CO)NC(=O)[C@@H](NC(=O)[C@H](CO)NC(C)=O)C(C)C)C(=O)N[C@@H](CCC(N)=O)C(=O)N[C@@H](CC(C)C)C(=O)N[C@@H](CCSC)C(=O)N[C@@H](Cc1cnc[nH]1)C(=O)N[C@@H](CC(N)=O)C(=O)N[C@@H](CC(C)C)C(=O)NCC(=O)N[C@@H](CCCCN)C(=O)N[C@@H](Cc1cnc[nH]1)C(=O)N[C@@H](CC(C)C)C(=O)N[C@@H](CC(N)=O)C(=O)N[C@@H](CO)C(=O)N[C@@H](CCSC)C(=O)N[C@@H](CCC(=O)O)C(=O)N[C@@H](C)C(=O)N[C@H](C(=O)N[C@@H](CCC(=O)O)C(=O)N[C@@H](Cc1c[nH]c2ccccc12)C(=O)N[C@@H](CC(C)C)C(=O)N[C@@H](CCCNC(=N)N)C(=O)N[C@@H](CCCCN)C(=O)N[C@@H](CCCCN)C(=O)N[C@@H](CC(C)C)C(=O)N[C@@H](CCC(N)=O)C(=O)N[C@@H](CC(=O)O)C(=O)N[C@H](C(=O)N[C@@H](Cc1cnc[nH]1)C(=O)N[C@@H](CC(N)=O)C(=O)N[C@@H](Cc1ccccc1)C(N)=O)C(C)C)C(C)C", "Activity": "Non-Toxic"},
      {"smiles": "CC[C@H](C)[C@H](NC(=O)[C@H](CCC(=O)O)NC(=O)[C@H](C)NC(=O)[C@@H](NC(=O)[C@H](CO)NC(C)=O)C(C)C)C(=O)N[C@@H](CCC(N)=O)C(=O)N[C@@H](CC(C)C)C(=O)N[C@@H](CCSC)C(=O)N[C@@H](Cc1cnc[nH]1)C(=O)N[C@@H](CC(N)=O)C(=O)N[C@@H](CC(C)C)C(=O)NCC(=O)N[C@@H](CCCCN)C(=O)N[C@@H](Cc1cnc[nH]1)C(=O)N[C@@H](CC(C)C)C(=O)N[C@@H](CC(N)=O)C(=O)N[C@@H](CO)C(=O)N[C@@H](CCSC)C(=O)N[C@@H](CCC(=O)O)C(=O)N[C@@H](CCCNC(=N)N)C(=O)N[C@H](C(=O)N[C@@H](CCC(=O)O)C(=O)N[C@@H](Cc1c[nH]c2ccccc12)C(=O)N[C@@H](CC(C)C)C(=O)N[C@@H](CCCNC(=N)N)C(=O)N[C@@H](CCCCN)C(=O)N[C@@H](CCCCN)C(=O)N[C@@H](CC(C)C)C(=O)N[C@@H](CCC(N)=O)C(=O)N[C@@H](CC(=O)O)C(=O)N[C@H](C(=O)N[C@@H](Cc1cnc[nH]1)C(=O)N[C@@H](CC(N)=O)C(=O)N[C@@H](Cc1ccccc1)C(N)=O)C(C)C)C(C)C", "Activity": "Non-Toxic"},
      {"smiles": "CC[C@H](C)[C@H](NC(=O)[C@H](CCC(=O)O)NC(=O)[C@H](CO)NC(=O)[C@@H](NC(=O)[C@H](CO)NC(C)=O)C(C)C)C(=O)N[C@@H](CCC(N)=O)C(=O)N[C@@H](CC(C)C)C(=O)N[C@@H](CCSC)C(=O)N[C@@H](Cc1cnc[nH]1)C(=O)N[C@@H](CC(N)=O)C(=O)N[C@@H](CC(C)C)C(=O)NCC(=O)N[C@@H](CCCCN)C(=O)N[C@@H](Cc1cnc[nH]1)C(=O)N[C@@H](C)C(=O)N[C@@H](CC(N)=O)C(=O)N[C@@H](CO)C(=O)N[C@@H](CCSC)C(=O)N[C@@H](CCC(=O)O)C(=O)N[C@@H](CCCNC(=N)N)C(=O)N[C@H](C(=O)N[C@@H](CCC(=O)O)C(=O)N[C@@H](Cc1c[nH]c2ccccc12)C(=O)N[C@@H](CC(C)C)C(=O)N[C@@H](CCCNC(=N)N)C(=O)N[C@@H](CCCCN)C(=O)N[C@@H](CCCCN)C(=O)N[C@@H](CC(C)C)C(=O)N[C@@H](CCC(N)=O)C(=O)N[C@@H](CC(=O)O)C(=O)N[C@H](C(=O)N[C@@H](Cc1cnc[nH]1)C(=O)N[C@@H](CC(N)=O)C(=O)N[C@@H](Cc1ccccc1)C(N)=O)C(C)C)C(C)C", "Activity": "Non-Toxic"},
      {"smiles": "CC[C@H](C)[C@H](NC(=O)[C@H](CCC(=O)O)NC(=O)[C@H](CO)NC(=O)[C@@H](NC(=O)[C@H](CO)NC(C)=O)C(C)C)C(=O)N[C@@H](CCC(N)=O)C(=O)N[C@@H](CC(C)C)C(=O)N[C@@H](CCSC)C(=O)N[C@@H](Cc1cnc[nH]1)C(=O)N[C@@H](CC(N)=O)C(=O)N[C@@H](CC(C)C)C(=O)NCC(=O)N[C@@H](CCCCN)C(=O)N[C@@H](Cc1cnc[nH]1)C(=O)N[C@@H](CC(C)C)C(=O)N[C@@H](CC(N)=O)C(=O)N[C@@H](CO)C(=O)N[C@@H](CCSC)C(=O)N[C@@H](CCC(=O)O)C(=O)N[C@@H](CCCNC(=N)N)C(=O)N[C@H](C(=O)N[C@@H](CCC(=O)O)C(=O)N[C@@H](Cc1c[nH]c2ccccc12)C(=O)N[C@@H](CC(C)C)C(=O)N[C@@H](CCCNC(=N)N)C(=O)N[C@@H](CCCCN)C(=O)N[C@@H](CCCCN)C(=O)N[C@@H](CC(C)C)C(=O)N[C@@H](CCC(N)=O)C(=O)N[C@@H](CC(=O)O)C(=O)N[C@H](C(=O)N[C@@H](Cc1cnc[nH]1)C(=O)N[C@@H](CC(N)=O)C(=O)N[C@@H](C)C(N)=O)C(C)C)C(C)C", "Activity": "Non-Toxic"},
      {"smiles": "CC[C@H](C)[C@H](NC(=O)[C@H](CCC(=O)O)NC(=O)[C@H](CO)NC(=O)[C@@H](NC(=O)[C@H](CO)NC(C)=O)C(C)C)C(=O)N[C@@H](CCC(N)=O)C(=O)N[C@@H](CC(C)C)C(=O)N[C@@H](CCSC)C(=O)N[C@@H](Cc1cnc[nH]1)C(=O)N[C@@H](CC(N)=O)C(=O)N[C@@H](C)C(=O)NCC(=O)N[C@@H](CCCCN)C(=O)N[C@@H](Cc1cnc[nH]1)C(=O)N[C@@H](CC(C)C)C(=O)N[C@@H](CC(N)=O)C(=O)N[C@@H](CO)C(=O)N[C@@H](CCSC)C(=O)N[C@@H](CCC(=O)O)C(=O)N[C@@H](CCCNC(=N)N)C(=O)N[C@H](C(=O)N[C@@H](CCC(=O)O)C(=O)N[C@@H](Cc1c[nH]c2ccccc12)C(=O)N[C@@H](CC(C)C)C(=O)N[C@@H](CCCNC(=N)N)C(=O)N[C@@H](CCCCN)C(=O)N[C@@H](CCCCN)C(=O)N[C@@H](CC(C)C)C(=O)N[C@@H](CCC(N)=O)C(=O)N[C@@H](CC(=O)O)C(=O)N[C@H](C(=O)N[C@@H](Cc1cnc[nH]1)C(=O)N[C@@H](CC(N)=O)C(=O)N[C@@H](Cc1ccccc1)C(N)=O)C(C)C)C(C)C", "Activity": "Non-Toxic"},
      {"smiles": "CC[C@H](C)[C@H](NC(=O)[C@H](C)NC(=O)[C@H](CO)NC(=O)[C@@H](NC(=O)[C@H](CO)NC(C)=O)C(C)C)C(=O)N[C@@H](CCC(N)=O)C(=O)N[C@@H](CC(C)C)C(=O)N[C@@H](CCSC)C(=O)N[C@@H](Cc1cnc[nH]1)C(=O)N[C@@H](CC(N)=O)C(=O)N[C@@H](CC(C)C)C(=O)NCC(=O)N[C@@H](CCCCN)C(=O)N[C@@H](Cc1cnc[nH]1)C(=O)N[C@@H](CC(C)C)C(=O)N[C@@H](CC(N)=O)C(=O)N[C@@H](CO)C(=O)N[C@@H](CCSC)C(=O)N[C@@H](CCC(=O)O)C(=O)N[C@@H](CCCNC(=N)N)C(=O)N[C@H](C(=O)N[C@@H](CCC(=O)O)C(=O)N[C@@H](Cc1c[nH]c2ccccc12)C(=O)N[C@@H](CC(C)C)C(=O)N[C@@H](CCCNC(=N)N)C(=O)N[C@@H](CCCCN)C(=O)N[C@@H](CCCCN)C(=O)N[C@@H](CC(C)C)C(=O)N[C@@H](CCC(N)=O)C(=O)N[C@@H](CC(=O)O)C(=O)N[C@H](C(=O)N[C@@H](Cc1cnc[nH]1)C(=O)N[C@@H](CC(N)=O)C(=O)N[C@@H](Cc1ccccc1)C(N)=O)C(C)C)C(C)C", "Activity": "Non-Toxic"},
      {"smiles": "CC[C@H](C)[C@H](NC(=O)[C@H](CCC(=O)O)NC(=O)[C@H](CO)NC(=O)[C@@H](NC(=O)[C@H](CO)NC(C)=O)C(C)C)C(=O)N[C@@H](CCC(N)=O)C(=O)N[C@@H](CC(C)C)C(=O)N[C@@H](C)C(=O)N[C@@H](Cc1cnc[nH]1)C(=O)N[C@@H](CC(N)=O)C(=O)N[C@@H](CC(C)C)C(=O)NCC(=O)N[C@@H](CCCCN)C(=O)N[C@@H](Cc1cnc[nH]1)C(=O)N[C@@H](CC(C)C)C(=O)N[C@@H](CC(N)=O)C(=O)N[C@@H](CO)C(=O)N[C@@H](CCSC)C(=O)N[C@@H](CCC(=O)O)C(=O)N[C@@H](CCCNC(=N)N)C(=O)N[C@H](C(=O)N[C@@H](CCC(=O)O)C(=O)N[C@@H](Cc1c[nH]c2ccccc12)C(=O)N[C@@H](CC(C)C)C(=O)N[C@@H](CCCNC(=N)N)C(=O)N[C@@H](CCCCN)C(=O)N[C@@H](CCCCN)C(=O)N[C@@H](CC(C)C)C(=O)N[C@@H](CCC(N)=O)C(=O)N[C@@H](CC(=O)O)C(=O)N[C@H](C(=O)N[C@@H](Cc1cnc[nH]1)C(=O)N[C@@H](CC(N)=O)C(=O)N[C@@H](Cc1ccccc1)C(N)=O)C(C)C)C(C)C", "Activity": "Non-Toxic"}
    ]}
  ]
}
